The structures appear in SMILES notation.

The subject of this assay is Escherichia coli. Description: Tested for inhibition of puromycin reaction and reported as equilibrium constant derived from primary and secondary kinetic plots for the inhibition of peptide bond formation. It counts as functional.
In the case of `NC(Cc1ccccc1)C(=O)NCC(=O)NC(CO)C(O)c1ccc([N+](=O)[O-])cc1` (stereo unspecified), the Ki (in general, a dissociation constant, usually derived from enzyme kinetics or from competition with a known ligand) came to 1.5 µM. On to `NC(Cc1ccccc1)C(=O)NC(CO)C(O)c1ccc([N+](=O)[O-])cc1` (stereo unspecified), for which the inhibition constant (Ki) came out at 18 µM. `NCC(=O)NC(CO)C(O)c1ccc([N+](=O)[O-])cc1` (stereo unspecified) came in with a Ki of 5.5 µM.

Molecule `O=C(N[C@H](CO)[C@H](O)c1ccc([N+](=O)[O-])cc1)C(Cl)Cl` [CHLORAMPHENICOL] returned a Ki of 0.7 µM. To `NS(=O)(=O)c1ccc([C@@H](O)[C@@H](CO)NC(=O)C(Cl)Cl)cc1` [TEVENEL] belongs 1.7 µM; to `CS(=O)(=O)c1ccc([C@@H](O)[C@@H](CO)NC(=O)C(Cl)Cl)cc1` [THIAMPHENICOL], 0.4 µM.

For the origin of these results see ChEMBL document CHEMBL1126895, “Aminoacyl analogs of chloramphenicol: examination of the kinetics of inhibition of peptide bond formation” (J Med Chem, 1993).
